{"source": "the kinase profiling compilation of Christmann-Franck et al. (2016)", "assay_in_all_cases": "radiometric filter-binding kinase assay, Kinase HotSpot", "details_in_all_cases": "compound 0.5 µM; ATP 10 µM", "key": {"[1]": {"biological_target": "ABL1 (human) (UniProt P00519)"}, "[2]": {"biological_target": "ACVR1 (human) (UniProt Q04771)"}, "[3]": {"test_system": "ARAF (human), P10398 [Y301D/Y302D]"}, "[4]": {"biological_target": "AURKA (human) (UniProt O14965)"}, "[5]": {"biological_target": "BRAF (human) (UniProt P15056)"}, "[6]": {"biological_target": "CDC42BPB (human) (UniProt Q9Y5S2)"}, "[7]": {"biological_target": "CDK5 CDK5R1 p35 (human) (UniProt Q00535+Q15078)"}, "[8]": {"biological_target": "CHUK (human) (UniProt O15111)"}, "[9]": {"biological_target": "CLK2 (human) (UniProt P49760)"}, "[10]": {"biological_target": "CSNK1E (human) (UniProt P49674)"}, "[11]": {"biological_target": "CSNK2A2 (human) (UniProt P19784)"}, "[12]": {"biological_target": "DCLK2 (human) (UniProt Q8N568)", "sequence (Q8N568 whole entry, looked up)": "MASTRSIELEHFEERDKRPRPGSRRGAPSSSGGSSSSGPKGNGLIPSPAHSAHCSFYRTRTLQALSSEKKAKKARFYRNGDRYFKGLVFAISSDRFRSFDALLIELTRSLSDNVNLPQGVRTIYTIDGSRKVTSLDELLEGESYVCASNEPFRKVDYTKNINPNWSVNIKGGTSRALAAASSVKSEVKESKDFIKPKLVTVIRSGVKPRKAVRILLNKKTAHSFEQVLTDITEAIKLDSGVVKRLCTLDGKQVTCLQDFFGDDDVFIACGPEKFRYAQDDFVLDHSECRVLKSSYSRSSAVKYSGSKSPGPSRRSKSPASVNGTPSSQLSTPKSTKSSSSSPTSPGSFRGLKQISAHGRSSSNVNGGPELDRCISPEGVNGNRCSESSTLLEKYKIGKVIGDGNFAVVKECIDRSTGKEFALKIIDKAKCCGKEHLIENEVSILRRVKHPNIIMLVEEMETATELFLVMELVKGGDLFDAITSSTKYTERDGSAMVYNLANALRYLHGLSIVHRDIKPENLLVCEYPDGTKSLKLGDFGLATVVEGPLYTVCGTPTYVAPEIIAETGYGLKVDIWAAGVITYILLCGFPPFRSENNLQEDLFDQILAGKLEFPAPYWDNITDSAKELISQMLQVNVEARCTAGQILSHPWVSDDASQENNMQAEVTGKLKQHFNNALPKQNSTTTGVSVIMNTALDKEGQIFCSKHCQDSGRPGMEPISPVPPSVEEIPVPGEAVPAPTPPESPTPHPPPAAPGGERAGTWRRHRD"}, "[13]": {"biological_target": "EGFR (human) (UniProt P00533)"}, "[14]": {"biological_target": "EPHA6 (human) (UniProt Q9UF33)"}, "[15]": {"biological_target": "EPHB4 (human) (UniProt P54760)"}, "[16]": {"biological_target": "ERBB2 (human) (UniProt P04626)"}, "[17]": {"biological_target": "FES (human) (UniProt P07332)"}, "[18]": {"biological_target": "FGFR1 (human) (UniProt P11362)"}, "[19]": {"biological_target": "GRK6 (human) (UniProt P43250)"}, "[20]": {"biological_target": "MAP3K10 (human) (UniProt Q02779)", "sequence (Q02779 whole entry, looked up)": "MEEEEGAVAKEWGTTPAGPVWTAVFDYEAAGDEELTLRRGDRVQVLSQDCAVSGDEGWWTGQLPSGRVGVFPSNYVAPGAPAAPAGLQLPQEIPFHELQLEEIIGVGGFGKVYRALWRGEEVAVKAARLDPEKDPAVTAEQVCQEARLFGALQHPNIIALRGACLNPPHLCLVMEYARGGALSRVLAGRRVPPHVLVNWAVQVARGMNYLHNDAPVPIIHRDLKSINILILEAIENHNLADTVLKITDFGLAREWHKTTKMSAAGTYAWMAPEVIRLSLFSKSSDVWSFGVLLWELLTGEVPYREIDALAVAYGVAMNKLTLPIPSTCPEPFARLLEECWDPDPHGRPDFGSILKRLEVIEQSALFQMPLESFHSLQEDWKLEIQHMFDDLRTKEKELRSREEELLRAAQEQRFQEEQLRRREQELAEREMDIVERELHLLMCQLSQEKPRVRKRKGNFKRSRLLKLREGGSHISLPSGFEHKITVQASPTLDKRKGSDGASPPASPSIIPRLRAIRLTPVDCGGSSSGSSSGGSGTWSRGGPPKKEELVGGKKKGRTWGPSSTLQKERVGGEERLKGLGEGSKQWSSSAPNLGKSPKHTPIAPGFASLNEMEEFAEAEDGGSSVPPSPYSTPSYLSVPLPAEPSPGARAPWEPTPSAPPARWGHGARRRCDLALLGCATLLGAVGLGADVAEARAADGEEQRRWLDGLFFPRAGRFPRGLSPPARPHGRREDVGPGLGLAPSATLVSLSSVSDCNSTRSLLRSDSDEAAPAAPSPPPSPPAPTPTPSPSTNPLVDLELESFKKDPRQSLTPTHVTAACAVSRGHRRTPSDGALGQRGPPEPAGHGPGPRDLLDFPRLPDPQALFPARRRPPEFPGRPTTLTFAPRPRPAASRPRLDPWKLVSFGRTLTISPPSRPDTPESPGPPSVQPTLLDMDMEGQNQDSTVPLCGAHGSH"}, "[21]": {"biological_target": "MAPK1 (human) (UniProt P28482)"}, "[22]": {"biological_target": "MAPK12 (human) (UniProt P53778)"}, "[23]": {"biological_target": "MARK2 (human) (UniProt Q7KZI7)"}, "[24]": {"biological_target": "MYLK (human) (UniProt Q15746)"}, "[25]": {"biological_target": "MYO3B (human) (UniProt Q8WXR4)", "sequence (Q8WXR4 whole entry, looked up)": "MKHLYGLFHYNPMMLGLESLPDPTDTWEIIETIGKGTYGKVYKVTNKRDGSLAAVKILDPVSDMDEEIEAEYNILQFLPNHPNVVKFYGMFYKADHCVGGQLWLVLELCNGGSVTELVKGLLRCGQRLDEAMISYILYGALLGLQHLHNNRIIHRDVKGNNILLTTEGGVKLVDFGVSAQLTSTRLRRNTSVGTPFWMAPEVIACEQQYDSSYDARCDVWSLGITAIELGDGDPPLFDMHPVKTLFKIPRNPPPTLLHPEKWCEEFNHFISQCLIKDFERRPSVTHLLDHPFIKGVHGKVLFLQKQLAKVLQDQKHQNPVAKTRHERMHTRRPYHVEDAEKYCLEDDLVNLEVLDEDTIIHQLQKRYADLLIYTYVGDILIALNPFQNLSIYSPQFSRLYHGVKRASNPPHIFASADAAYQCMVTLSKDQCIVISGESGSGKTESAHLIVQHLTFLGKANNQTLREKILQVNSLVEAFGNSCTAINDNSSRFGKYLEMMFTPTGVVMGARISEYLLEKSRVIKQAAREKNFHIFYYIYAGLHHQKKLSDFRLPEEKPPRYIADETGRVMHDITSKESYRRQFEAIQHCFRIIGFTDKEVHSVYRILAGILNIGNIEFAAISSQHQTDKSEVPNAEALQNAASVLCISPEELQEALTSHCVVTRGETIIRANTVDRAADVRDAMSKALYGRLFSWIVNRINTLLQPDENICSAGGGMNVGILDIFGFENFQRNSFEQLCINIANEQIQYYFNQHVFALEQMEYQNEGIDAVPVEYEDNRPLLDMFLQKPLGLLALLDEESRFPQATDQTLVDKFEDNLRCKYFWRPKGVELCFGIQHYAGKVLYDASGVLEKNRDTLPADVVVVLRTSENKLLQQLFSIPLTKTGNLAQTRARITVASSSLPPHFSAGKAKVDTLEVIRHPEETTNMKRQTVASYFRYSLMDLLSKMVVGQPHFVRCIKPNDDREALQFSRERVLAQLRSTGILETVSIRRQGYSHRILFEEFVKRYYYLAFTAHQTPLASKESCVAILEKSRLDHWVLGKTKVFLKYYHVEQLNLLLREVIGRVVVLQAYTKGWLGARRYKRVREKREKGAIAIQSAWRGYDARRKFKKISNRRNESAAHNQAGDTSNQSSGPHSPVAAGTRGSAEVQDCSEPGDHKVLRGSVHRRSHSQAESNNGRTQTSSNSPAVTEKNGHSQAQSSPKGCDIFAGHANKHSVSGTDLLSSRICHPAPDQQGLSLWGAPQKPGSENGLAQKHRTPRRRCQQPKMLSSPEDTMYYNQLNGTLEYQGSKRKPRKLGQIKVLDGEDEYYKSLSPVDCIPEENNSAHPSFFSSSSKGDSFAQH"}, "[26]": {"biological_target": "NEK7 (human) (UniProt Q8TDX7)"}, "[27]": {"biological_target": "NUAK2 (human) (UniProt Q9H093)"}, "[28]": {"biological_target": "PAK1 (human) (UniProt Q13153)"}, "[29]": {"biological_target": "PBK (human) (UniProt Q96KB5)"}, "[30]": {"biological_target": "PDGFRB (human) (UniProt P09619)"}, "[31]": {"biological_target": "PLK1 (human) (UniProt P53350)"}, "[32]": {"biological_target": "PLK2 (human) (UniProt Q9NYY3)"}, "[33]": {"biological_target": "PRKACG (human) (UniProt P22612)", "sequence (P22612 whole entry, looked up)": "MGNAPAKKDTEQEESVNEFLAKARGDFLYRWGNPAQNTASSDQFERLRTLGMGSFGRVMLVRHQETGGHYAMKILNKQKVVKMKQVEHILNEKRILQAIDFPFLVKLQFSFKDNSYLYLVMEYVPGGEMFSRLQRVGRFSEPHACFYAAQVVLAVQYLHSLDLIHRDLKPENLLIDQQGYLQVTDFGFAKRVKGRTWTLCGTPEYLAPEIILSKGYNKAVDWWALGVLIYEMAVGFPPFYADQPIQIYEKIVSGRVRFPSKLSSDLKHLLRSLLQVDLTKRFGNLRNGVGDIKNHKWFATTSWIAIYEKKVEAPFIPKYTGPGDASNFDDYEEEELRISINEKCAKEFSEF"}, "[34]": {"biological_target": "PRKCE (human) (UniProt Q02156)"}, "[35]": {"biological_target": "PRKD2 (human) (UniProt Q9BZL6)"}, "[36]": {"biological_target": "RAF1 (human) (UniProt P04049)"}, "[37]": {"biological_target": "STK38 (human) (UniProt Q15208)", "sequence (Q15208 whole entry, looked up)": "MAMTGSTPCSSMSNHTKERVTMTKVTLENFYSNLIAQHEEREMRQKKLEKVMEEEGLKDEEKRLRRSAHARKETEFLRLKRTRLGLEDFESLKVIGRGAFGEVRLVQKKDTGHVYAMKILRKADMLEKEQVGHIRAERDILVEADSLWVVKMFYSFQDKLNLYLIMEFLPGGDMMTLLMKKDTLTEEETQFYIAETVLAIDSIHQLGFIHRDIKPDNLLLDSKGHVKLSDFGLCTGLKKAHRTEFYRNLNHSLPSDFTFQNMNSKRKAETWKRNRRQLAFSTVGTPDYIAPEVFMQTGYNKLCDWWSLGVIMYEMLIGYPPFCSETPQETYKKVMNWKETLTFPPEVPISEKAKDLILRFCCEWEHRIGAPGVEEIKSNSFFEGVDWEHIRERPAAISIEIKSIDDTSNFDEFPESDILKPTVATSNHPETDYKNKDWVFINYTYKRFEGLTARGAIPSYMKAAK"}, "[38]": {"biological_target": "STK4 (human) (UniProt Q13043)", "sequence (Q13043 whole entry, looked up)": "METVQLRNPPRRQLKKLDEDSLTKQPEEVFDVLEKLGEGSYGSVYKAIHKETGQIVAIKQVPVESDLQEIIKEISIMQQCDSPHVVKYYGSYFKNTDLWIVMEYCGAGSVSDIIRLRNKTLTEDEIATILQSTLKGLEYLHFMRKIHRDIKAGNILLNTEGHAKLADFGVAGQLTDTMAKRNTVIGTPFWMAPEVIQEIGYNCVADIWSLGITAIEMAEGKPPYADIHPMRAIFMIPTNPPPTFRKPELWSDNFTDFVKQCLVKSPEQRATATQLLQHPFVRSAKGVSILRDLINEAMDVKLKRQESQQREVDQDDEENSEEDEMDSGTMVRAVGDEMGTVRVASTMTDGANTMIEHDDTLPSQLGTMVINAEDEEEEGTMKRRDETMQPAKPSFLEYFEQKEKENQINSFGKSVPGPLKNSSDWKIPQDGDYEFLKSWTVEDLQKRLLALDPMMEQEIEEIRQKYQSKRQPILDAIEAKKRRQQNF"}, "[39]": {"biological_target": "TLK2 (human) (UniProt Q86UE8)"}, "[40]": {"biological_target": "ULK3 (human) (UniProt Q6PHR2)"}, "[41]": {"biological_target": "WEE1 (human) (UniProt P30291)", "sequence (P30291 whole entry, looked up)": "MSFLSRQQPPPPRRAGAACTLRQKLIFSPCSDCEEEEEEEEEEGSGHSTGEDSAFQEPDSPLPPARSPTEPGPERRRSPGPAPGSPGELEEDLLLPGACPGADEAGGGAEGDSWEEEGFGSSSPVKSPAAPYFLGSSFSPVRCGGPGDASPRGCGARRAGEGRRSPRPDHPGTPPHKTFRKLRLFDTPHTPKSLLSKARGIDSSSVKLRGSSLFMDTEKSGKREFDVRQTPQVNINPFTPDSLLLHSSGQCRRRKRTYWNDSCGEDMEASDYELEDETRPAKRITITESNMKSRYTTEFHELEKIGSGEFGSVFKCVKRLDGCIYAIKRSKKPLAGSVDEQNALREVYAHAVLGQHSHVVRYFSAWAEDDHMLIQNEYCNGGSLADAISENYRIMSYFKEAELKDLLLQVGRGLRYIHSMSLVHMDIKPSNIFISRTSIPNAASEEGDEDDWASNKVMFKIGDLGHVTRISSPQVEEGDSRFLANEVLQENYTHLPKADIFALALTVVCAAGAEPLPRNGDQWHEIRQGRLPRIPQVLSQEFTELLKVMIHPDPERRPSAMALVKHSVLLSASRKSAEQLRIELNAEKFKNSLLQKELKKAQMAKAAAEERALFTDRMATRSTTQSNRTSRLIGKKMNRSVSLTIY"}}, "data": [{"smiles": "CC(C)[C@H](CO)Nc1nc(Nc2cccc(Cl)c2)c2ncn(C(C)C)c2n1", "values": [{"measurement": "residual activity", "setting": "[1]", "result": 75.6, "unit": "%"}, {"measurement": "residual activity", "setting": "[2]", "result": 92.6, "unit": "%"}, {"measurement": "residual activity", "setting": "[3]", "result": 96.5, "unit": "%"}, {"measurement": "residual activity", "setting": "[4]", "result": 80.6, "unit": "%"}, {"measurement": "residual activity", "setting": "[5]", "result": 92.7, "unit": "%"}, {"measurement": "residual activity", "setting": "[6]", "result": 108, "unit": "%"}, {"measurement": "residual activity", "setting": "[7]", "result": 2.61, "unit": "%"}, {"measurement": "residual activity", "setting": "[8]", "result": 106, "unit": "%"}, {"measurement": "residual activity", "setting": "[9]", "result": 21.9, "unit": "%"}, {"measurement": "residual activity", "setting": "[10]", "result": 87.3, "unit": "%"}, {"measurement": "residual activity", "setting": "[11]", "result": 93.2, "unit": "%"}, {"measurement": "residual activity", "setting": "[12]", "result": 100, "unit": "%"}, {"measurement": "residual activity", "setting": "[13]", "result": 94.2, "unit": "%"}, {"measurement": "residual activity", "setting": "[14]", "result": 93.8, "unit": "%"}, {"measurement": "residual activity", "setting": "[15]", "result": 71.7, "unit": "%"}, {"measurement": "residual activity", "setting": "[16]", "result": 97.1, "unit": "%"}, {"measurement": "residual activity", "setting": "[17]", "result": 95.9, "unit": "%"}, {"measurement": "residual activity", "setting": "[18]", "result": 80.6, "unit": "%"}, {"measurement": "residual activity", "setting": "[19]", "result": 98.3, "unit": "%"}, {"measurement": "residual activity", "setting": "[20]", "result": 98, "unit": "%"}, {"measurement": "residual activity", "setting": "[21]", "result": 86.7, "unit": "%"}, {"measurement": "residual activity", "setting": "[22]", "result": 106, "unit": "%"}, {"measurement": "residual activity", "setting": "[23]", "result": 95.7, "unit": "%"}, {"measurement": "residual activity", "setting": "[24]", "result": 95.1, "unit": "%"}, {"measurement": "residual activity", "setting": "[25]", "result": 94.2, "unit": "%"}, {"measurement": "residual activity", "setting": "[26]", "result": 101, "unit": "%"}, {"measurement": "residual activity", "setting": "[27]", "result": 134, "unit": "%"}, {"measurement": "residual activity", "setting": "[28]", "result": 92.8, "unit": "%"}, {"measurement": "residual activity", "setting": "[29]", "result": 102, "unit": "%"}, {"measurement": "residual activity", "setting": "[30]", "result": 106, "unit": "%"}, {"measurement": "residual activity", "setting": "[31]", "result": 89.2, "unit": "%"}, {"measurement": "residual activity", "setting": "[32]", "result": 102, "unit": "%"}, {"measurement": "residual activity", "setting": "[33]", "result": 113, "unit": "%"}, {"measurement": "residual activity", "setting": "[34]", "result": 115, "unit": "%"}, {"measurement": "residual activity", "setting": "[35]", "result": 99.7, "unit": "%"}, {"measurement": "residual activity", "setting": "[36]", "result": 98.9, "unit": "%"}, {"measurement": "residual activity", "setting": "[37]", "result": 90.5, "unit": "%"}, {"measurement": "residual activity", "setting": "[38]", "result": 87.7, "unit": "%"}, {"measurement": "residual activity", "setting": "[39]", "result": 94.7, "unit": "%"}, {"measurement": "residual activity", "setting": "[40]", "result": 59.6, "unit": "%"}, {"measurement": "residual activity", "setting": "[41]", "result": 82.6, "unit": "%"}]}, {"smiles": "Cc1ccc(NC(=O)c2ccc(CN3CCN(C)CC3)cc2)cc1Nc1nc(-c2cccnc2)cs1", "values": [{"measurement": "residual activity", "setting": "[1]", "result": 49.8, "unit": "%"}, {"measurement": "residual activity", "setting": "[2]", "result": 101, "unit": "%"}, {"measurement": "residual activity", "setting": "[3]", "result": 102, "unit": "%"}, {"measurement": "residual activity", "setting": "[4]", "result": 105, "unit": "%"}, {"measurement": "residual activity", "setting": "[5]", "result": 92.3, "unit": "%"}, {"measurement": "residual activity", "setting": "[6]", "result": 98.1, "unit": "%"}, {"measurement": "residual activity", "setting": "[7]", "result": 100, "unit": "%"}, {"measurement": "residual activity", "setting": "[8]", "result": 96.2, "unit": "%"}, {"measurement": "residual activity", "setting": "[9]", "result": 86, "unit": "%"}, {"measurement": "residual activity", "setting": "[10]", "result": 98.8, "unit": "%"}, {"measurement": "residual activity", "setting": "[11]", "result": 86.7, "unit": "%"}, {"measurement": "residual activity", "setting": "[12]", "result": 102, "unit": "%"}, {"measurement": "residual activity", "setting": "[13]", "result": 99.6, "unit": "%"}, {"measurement": "residual activity", "setting": "[14]", "result": 98.2, "unit": "%"}, {"measurement": "residual activity", "setting": "[15]", "result": 97.3, "unit": "%"}, {"measurement": "residual activity", "setting": "[16]", "result": 103, "unit": "%"}, {"measurement": "residual activity", "setting": "[17]", "result": 105, "unit": "%"}, {"measurement": "residual activity", "setting": "[18]", "result": 103, "unit": "%"}, {"measurement": "residual activity", "setting": "[19]", "result": 104, "unit": "%"}, {"measurement": "residual activity", "setting": "[20]", "result": 102, "unit": "%"}, {"measurement": "residual activity", "setting": "[21]", "result": 91.6, "unit": "%"}, {"measurement": "residual activity", "setting": "[22]", "result": 96.9, "unit": "%"}, {"measurement": "residual activity", "setting": "[23]", "result": 104, "unit": "%"}, {"measurement": "residual activity", "setting": "[24]", "result": 96.2, "unit": "%"}, {"measurement": "residual activity", "setting": "[25]", "result": 82.6, "unit": "%"}, {"measurement": "residual activity", "setting": "[26]", "result": 96.3, "unit": "%"}, {"measurement": "residual activity", "setting": "[27]", "result": 98.4, "unit": "%"}, {"measurement": "residual activity", "setting": "[28]", "result": 104, "unit": "%"}, {"measurement": "residual activity", "setting": "[29]", "result": 99.6, "unit": "%"}, {"measurement": "residual activity", "setting": "[30]", "result": 17.3, "unit": "%"}, {"measurement": "residual activity", "setting": "[31]", "result": 101, "unit": "%"}, {"measurement": "residual activity", "setting": "[32]", "result": 97.9, "unit": "%"}, {"measurement": "residual activity", "setting": "[33]", "result": 110, "unit": "%"}, {"measurement": "residual activity", "setting": "[34]", "result": 100, "unit": "%"}, {"measurement": "residual activity", "setting": "[35]", "result": 98.2, "unit": "%"}, {"measurement": "residual activity", "setting": "[36]", "result": 77.5, "unit": "%"}, {"measurement": "residual activity", "setting": "[37]", "result": 95.9, "unit": "%"}, {"measurement": "residual activity", "setting": "[38]", "result": 101, "unit": "%"}, {"measurement": "residual activity", "setting": "[39]", "result": 94.5, "unit": "%"}, {"measurement": "residual activity", "setting": "[40]", "result": 104, "unit": "%"}, {"measurement": "residual activity", "setting": "[41]", "result": 97, "unit": "%"}]}]}
